Measured values as given in patent US7365096B2, “Methods for selectively inhibiting Janus tyrosine kinase 3 (Jak3)” (Board of Regents, The University of Texas System, priority 2002, dated 2008).
Entries after “also recorded” stand apart in the source; their conditions may differ. Where two headings read alike, the source gives them in different places.

Assays:
adapter protein Shc = test: Shc tyrosine phosphorylation (phospho-Western blot); type: cell-based; settings: phospho-Western blots
Method: Solubilization of membrane proteins, immunoprecipitation, and Western blot analysis. Frozen cell pellets were thawed on ice and solubilized in 1% TX-100 lysis buffer (10^8 cells/ml) and clarified by centrifugation, as previously described.^16 For human T-cells, supernates were incubated rotating end over end for 2 hours at 4° C. with either 5 μl/ml polyclonal rabbit antisera raised against peptides derived from the unique COOH-termini of Jak3 (amino acid [a.a.] 1104-1124), carboxyl termini of human Stat5a (a.a. 775-794) or Stat5b (a.a. 777-787).^26 Ab and immunoprecipitated proteins were captured by incubation for 30 minutes with Protein A-Sepharose beads (Pharmacia, Piscataway, N.J.), sedimented for purification, and eluted by boiling in 2×SDS-sample buffer (20% Glycerol, 10% 2-Mercaptoethanol, 4.6% SDS, 0.004% Bromophenol blue in 0.125 M Tris pH 6.8) for 4 minutes. For phosphoMapk assays, approximately 25 μg of total cell lysate was dissociated in SDS-sample buffer and separated on 10% (all others on 7.5%) SDS-PAGE under reducing conditions. […]

human Jurkat T-cells = test: Growth / DNA synthesis of non-Jak3 expressing Jurkat cells; type: cell-based
[1] = Kidney function and lipid metabolism in rats on low-salt diet (FIGS. 11A-F); type: in vivo, rat; settings: 160 mg/kg oral gavage, 14 day therapy
[2] = rat, in vivo
Lck = Lck (Homo sapiens, UniProt P06239); test: Tyrosine phosphorylation of activated Lck in YT cells; type: cell-based; set-up: Cellular extracts were immunoprecipitated with anti-Fyn or anti-Lck antibodies; endogenous in cells; host or cells: YT cells; settings: 1-100 μM, 2 hours
Sequence of Lck (P06239 whole entry): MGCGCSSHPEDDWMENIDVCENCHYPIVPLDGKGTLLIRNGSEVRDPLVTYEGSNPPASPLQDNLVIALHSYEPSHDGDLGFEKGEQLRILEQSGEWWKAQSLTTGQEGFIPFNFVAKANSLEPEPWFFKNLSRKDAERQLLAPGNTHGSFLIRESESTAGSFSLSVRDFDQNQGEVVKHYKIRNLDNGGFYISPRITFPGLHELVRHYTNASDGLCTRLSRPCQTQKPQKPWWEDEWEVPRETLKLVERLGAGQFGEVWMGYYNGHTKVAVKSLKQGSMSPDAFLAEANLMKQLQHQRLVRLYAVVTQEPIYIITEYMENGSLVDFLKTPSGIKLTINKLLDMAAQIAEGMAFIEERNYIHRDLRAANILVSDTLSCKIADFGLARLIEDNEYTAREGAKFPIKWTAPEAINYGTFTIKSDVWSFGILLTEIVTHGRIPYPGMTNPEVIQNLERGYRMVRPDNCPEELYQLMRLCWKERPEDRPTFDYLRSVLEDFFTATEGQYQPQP

Jak3 = target: T1, Jak3 (Homo sapiens, UniProt P52333); test: Jak3 autokinase activity of immunopurified Jak3 (phosphotyrosine Western blot); type: biochemical; set-up: immunopurified Jak3 was assayed for Jak3 autokinase activity and tested by phosphotyrosine Western blot; endogenous in cells
T1 sequence (P52333 1-1124): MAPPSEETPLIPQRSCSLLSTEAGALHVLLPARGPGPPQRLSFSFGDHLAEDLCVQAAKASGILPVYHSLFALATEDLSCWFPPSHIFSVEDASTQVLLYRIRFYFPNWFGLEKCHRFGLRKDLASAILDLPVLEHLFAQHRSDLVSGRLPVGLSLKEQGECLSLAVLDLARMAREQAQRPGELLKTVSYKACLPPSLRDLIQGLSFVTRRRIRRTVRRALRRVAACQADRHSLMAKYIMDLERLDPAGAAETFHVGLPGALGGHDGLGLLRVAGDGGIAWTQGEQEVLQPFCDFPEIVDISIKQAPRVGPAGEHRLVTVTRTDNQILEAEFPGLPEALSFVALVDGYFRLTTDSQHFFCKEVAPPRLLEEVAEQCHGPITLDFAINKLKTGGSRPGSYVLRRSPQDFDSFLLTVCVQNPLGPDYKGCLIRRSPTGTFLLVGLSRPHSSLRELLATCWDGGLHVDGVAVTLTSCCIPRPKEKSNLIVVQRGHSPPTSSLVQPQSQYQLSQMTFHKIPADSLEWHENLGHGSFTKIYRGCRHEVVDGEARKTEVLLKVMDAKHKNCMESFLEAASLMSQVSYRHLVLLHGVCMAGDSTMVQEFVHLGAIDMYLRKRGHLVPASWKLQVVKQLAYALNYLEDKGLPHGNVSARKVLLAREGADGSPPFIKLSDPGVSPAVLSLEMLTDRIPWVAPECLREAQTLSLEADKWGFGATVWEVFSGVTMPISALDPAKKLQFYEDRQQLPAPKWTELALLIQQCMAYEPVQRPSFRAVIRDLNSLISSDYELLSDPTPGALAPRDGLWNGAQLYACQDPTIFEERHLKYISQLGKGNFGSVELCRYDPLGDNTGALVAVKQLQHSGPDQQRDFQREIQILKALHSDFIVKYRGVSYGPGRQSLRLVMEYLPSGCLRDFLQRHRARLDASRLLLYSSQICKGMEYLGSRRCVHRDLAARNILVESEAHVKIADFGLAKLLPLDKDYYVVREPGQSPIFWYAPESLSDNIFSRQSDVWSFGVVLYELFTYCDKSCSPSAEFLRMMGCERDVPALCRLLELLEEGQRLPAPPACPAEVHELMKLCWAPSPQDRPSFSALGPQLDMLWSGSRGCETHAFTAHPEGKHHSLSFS
Method: Immunopurified Jak3 was assayed for Jak3 autokinase activity and tested by phosphotyrosine Western blot in the absence or presence of 100 μM ATP and/or drug and compared to controls.
Referring now to FIG. 8, direct evidence is provided that […] (NC1153) inhibits Jak3 signaling pathways. […] The bands identified as “PY-Jak3” reveal only the active Jak3 at the indicated dosages of NC1153, with or without IL-2 and ATP.

CN(C)CC1CCCCCCCCCC(CN(C)C)C1=O (mixture of isomers) [649641P (NC1153)]
tyrosine phosphorylation of adapter protein Shc (adapter protein Shc): inhibited tyrosine phosphorylation
cell growth / DNA synthesis of Jurkat cells (human Jurkat T-cells): did not inhibit DNA synthesis
cell growth / DNA synthesis of Jurkat cells (human Jurkat T-cells; listed as NC1153): does not block cell growth
nephrotoxicity and lipid metabolism (serum creatinine, clearance, cholesterol, triglycerides, LDL, HDL) [1]: is not nephrotoxic and does not affect lipid metabolism
HDL [2]: increased HDL
HDL, LDL, or TG levels [2]: no effect
TG or LDL levels [2]: without changing TG or LDL levels
overall toxicity conclusion [2]: free of nephrotoxic and myelotoxic effects with mild lipotoxicity on high-fat challenge
peripheral blood counts (PBC) [2]: Neither 648641P nor CsA reduced PBC
activity (tyrosine phosphorylation) of Lck (Lck): no effect; also recorded: does not block the activity; also recorded: did not inhibit
IC50 (Jak3; 100 μM ATP): ~2500 nM
inhibition of Jak3 relative to Jak2 in kinase assays (Jak3; FIG. 9B and FIG. 8): At least 50 fold
